≈ marks a conversion by molar mass, not a printed value.
Columns and labels:
Assay type in all cases: functional
Streptococcus pneumoniae [1] = experiment: Antibacterial activity against clarithromycin resistance selected Streptococcus pneumoniae 3676 after 10 antibiotic-free subcultures by macrodilution method
Streptococcus pneumoniae [2] = experiment: Antibacterial activity against levofloxacin resistance selected Streptococcus pneumoniae 19 with GyrA S81Y and ParC D83Y mutation after 10 antibiotic-free subcultures by macrodilution method
Streptococcus pneumoniae [3] = experiment: Antibacterial activity against azithromycin resistance selected Streptococcus pneumoniae 2527 after 10 antibiotic-free subcultures by macrodilution method
Streptococcus pneumoniae [4] = experiment: Antibacterial activity against moxifloxacin resistance selected Streptococcus pneumoniae 3665 with GyrA S81Y mutation after 10 antibiotic-free subcultures by macrodilution method
Streptococcus pneumoniae [5] = experiment: Antibacterial activity against gatifloxacin resistance selected Streptococcus pneumoniae 37 with GyrA S81Y, GyrB E474K and ParC S79Y mutation after 10 antibiotic-free subcultures by macrodilution method
Streptococcus pneumoniae [6] = experiment: Antibacterial activity against moxifloxacin resistance selected Streptococcus pneumoniae 3243 after 10 antibiotic-free subcultures by macrodilution method
Streptococcus pneumoniae [7] = experiment: Antibacterial activity against clarithromycin resistance selected Streptococcus pneumoniae 3243 with 23S rRNA A2059T mutation after 10 antibiotic-free subcultures by macrodilution method
Streptococcus pneumoniae [8] = experiment: Antibacterial activity against gatifloxacin resistance selected Streptococcus pneumoniae 1076 with ParC S79Y mutation after 10 antibiotic-free subcultures by macrodilution method
Streptococcus pneumoniae [9] = experiment: Antibacterial activity against clarithromycin resistance selected Streptococcus pneumoniae 3665 after 10 antibiotic-free subcultures by macrodilution method
Streptococcus pneumoniae [10] = experiment: Antibacterial activity against moxifloxacin resistance selected Streptococcus pneumoniae 24 with GyrA S81Y, GyrB P413S and ParC S79F mutation after 10 antibiotic-free subcultures by macrodilution method
Streptococcus pneumoniae [11] = experiment: Antibacterial activity against moxifloxacin resistance selected Streptococcus pneumoniae 3676 with GyrA E85G, GyrB S478I and ParC S79Y mutation after 10 antibiotic-free subcultures by macrodilution method
Streptococcus pneumoniae [12] = experiment: Antibacterial activity against levofloxacin resistance selected Streptococcus pneumoniae 3009 with GyrA S81Y and ParC S79Y mutation after 10 antibiotic-free subcultures by macrodilution method
Streptococcus pneumoniae [13] = experiment: Antibacterial activity against azithromycin resistance selected Streptococcus pneumoniae 1077 with 23S rRNA A2058G mutation after 10 antibiotic-free subcultures by macrodilution method
Streptococcus pneumoniae [14] = experiment: Antibacterial activity against gatifloxacin resistance selected Streptococcus pneumoniae 3009 after 10 antibiotic-free subcultures by macrodilution method
Streptococcus pneumoniae [15] = experiment: Antibacterial activity against moxifloxacin resistance selected Streptococcus pneumoniae 1076 with ParC S79Y mutation after 10 antibiotic-free subcultures by macrodilution method
Streptococcus pneumoniae [16] = experiment: Antibacterial activity against azithromycin resistance selected Streptococcus pneumoniae 3243 with L22 insertion 93SFRPRA94 mutation after 10 antibiotic-free subcultures by macrodilution method
Streptococcus pneumoniae [17] = experiment: Antibacterial activity against Streptococcus pneumoniae assessed as period of suppression of bacterial growth
Streptococcus pneumoniae [18] = experiment: Antibacterial activity against clarithromycin resistance selected Streptococcus pneumoniae 3009 after 10 antibiotic-free subcultures by macrodilution method
Streptococcus pneumoniae [19] = experiment: Antibacterial activity against moxifloxacin resistance selected Streptococcus pneumoniae 19 with GyrA S81F mutation after 10 antibiotic-free subcultures by macrodilution method
Streptococcus pneumoniae [20] = experiment: Antibacterial activity against moxifloxacin resistance selected Streptococcus pneumoniae 3009 with GyrA S81F and ParC D83N mutation after 10 antibiotic-free subcultures by macrodilution method
Streptococcus pneumoniae [21] = experiment: Antibacterial activity against clarithromycin resistance selected Streptococcus pneumoniae 3243 with 23S rRNA A2059T mutation after 41 passages by macrodilution method
Streptococcus pneumoniae [22] = experiment: Antibacterial activity against Streptococcus pneumoniae 3665 by macrodilution method
Streptococcus pneumoniae [23] = experiment: Antibacterial activity against clarithromycin resistance selected Streptococcus pneumoniae 3009 after 25 passages by macrodilution method
Streptococcus pneumoniae [24] = experiment: Antibacterial activity against Streptococcus pneumoniae 3009 by macrodilution method
Streptococcus pneumoniae [25] = experiment: Antibacterial activity against Streptococcus pneumoniae 3243 by macrodilution method
Streptococcus pneumoniae [26] = experiment: Antibacterial activity against Streptococcus pneumoniae 3676 by macrodilution method
Streptococcus pneumoniae [27] = experiment: Antibacterial activity against clarithromycin resistance selected Streptococcus pneumoniae 3665 after 26 passages by macrodilution method
Streptococcus pneumoniae [28] = experiment: Antibacterial activity against clarithromycin resistance selected Streptococcus pneumoniae 3676 after 44 passages by macrodilution method

| Compound | MIC (Streptococcus pneumoniae [1]) [µg/mL] | MIC (Streptococcus pneumoniae [2]) [µg/mL] | MIC (Streptococcus pneumoniae [3]) [µg/mL] | MIC (Streptococcus pneumoniae [4]) [µg/mL] | MIC (Streptococcus pneumoniae [5]) [µg/mL] | MIC (Streptococcus pneumoniae [6]) [ng/mL] | MIC (Streptococcus pneumoniae [7]) [µg/mL] | MIC (Streptococcus pneumoniae [8]) [µg/mL] | MIC (Streptococcus pneumoniae [9]) [µg/mL] | MIC (Streptococcus pneumoniae [10]) [µg/mL] | MIC (Streptococcus pneumoniae [11]) [µg/mL] | MIC (Streptococcus pneumoniae [12]) [µg/mL] | MIC (Streptococcus pneumoniae [13]) [µg/mL] | MIC (Streptococcus pneumoniae [14]) [µg/mL] | MIC (Streptococcus pneumoniae [15]) [µg/mL] | MIC (Streptococcus pneumoniae [16]) [µg/mL] | Post Antibiotic Effe (Streptococcus pneumoniae [17]) [h] | MIC (Streptococcus pneumoniae [18]) [µg/mL] | MIC (Streptococcus pneumoniae [19]) [µg/mL] | MIC (Streptococcus pneumoniae [20]) [µg/mL] | other results |
| --- | --- | --- | --- | --- | --- | --- | --- | --- | --- | --- | --- | --- | --- | --- | --- | --- | --- | --- | --- | --- | --- |
| CO/N=C(\C(=O)N[C@@H]1C(=O)N2C(C(=O)O)=C(COC(N)=O)CS[C@H]12)c1ccco1 [CEFUROXIME] | 0.125 (≈ 0.295 µM) | 2 (≈ 4.71 µM) | 16 (≈ 37.7 µM) | 0.5 (≈ 1.18 µM) | 2 (≈ 4.71 µM) | 250 (≈ 0.589 µM) | 0.25 (≈ 0.589 µM) | 0.125 (≈ 0.295 µM) | 0.125 (≈ 0.295 µM) | 2 (≈ 4.71 µM) | 0.125 (≈ 0.295 µM) | ≤ 0.016 | 0.03 (≈ 0.0707 µM) | 0.03 (≈ 0.0707 µM) | 0.03 (≈ 0.0707 µM) | 0.5 (≈ 1.18 µM) | 1.5 | 0.03 (≈ 0.0707 µM) | 2 (≈ 4.71 µM) | 0.03 (≈ 0.0707 µM) |  |
| CC[C@H]1OC(=O)[C@H](C)[C@@H](O[C@H]2C[C@@](C)(OC)[C@@H](O)[C@H](C)O2)[C@H](C)[C@@H](O[C@@H]2O[C@H](C)C[C@H](N(C)C)[C@H]2O)[C@](C)(OC)C[C@@H](C)C(=O)[C@H](C)[C@@H](O)[C@]1(C)O [CLARITHROMYCIN] | 16 (≈ 21.4 µM) | > 128 | 16 (≈ 21.4 µM) | 2 (≈ 2.67 µM) | > 128 | 4 (≈ 0.00535 µM) | 0.25 (≈ 0.334 µM) | > 128 | 8 (≈ 10.7 µM) | > 128 | 4 (≈ 5.35 µM) | 0.5 (≈ 0.668 µM) | > 128 | 2 (≈ 2.67 µM) | > 128 | 0.5 (≈ 0.668 µM) | 3.8 | 64 (≈ 85.6 µM) | > 128 | 4 (≈ 5.35 µM) | MIC (Streptococcus pneumoniae [21]): 0.25 µg/mL (≈ 0.334 µM); MIC (Streptococcus pneumoniae [22]): 2 µg/mL (≈ 2.67 µM); MIC (Streptococcus pneumoniae [23]): > 128 µg/mL; MIC (Streptococcus pneumoniae [24]): 16 µg/mL (≈ 21.4 µM); MIC (Streptococcus pneumoniae [25]): 0.016 µg/mL (≈ 0.0214 µM); MIC (Streptococcus pneumoniae [26]): 4 µg/mL (≈ 5.35 µM); MIC (Streptococcus pneumoniae [27]): 16 µg/mL (≈ 21.4 µM); MIC (Streptococcus pneumoniae [28]): 32 µg/mL (≈ 42.8 µM) |
| C[C@@H](O)[C@H]1C(=O)N2C(C(=O)O)=C(SCCNC=N)C[C@H]12 [IMIPENEM ANHYDROUS] | 0.016 (≈ 0.0534 µM) | 0.5 (≈ 1.67 µM) | 0.5 (≈ 1.67 µM) | 0.03 (≈ 0.1 µM) | 0.5 (≈ 1.67 µM) | 4 (≈ 0.0134 µM) | 0.03 (≈ 0.1 µM) | 0.008 (≈ 0.0267 µM) | 0.03 (≈ 0.1 µM) | 0.5 (≈ 1.67 µM) | 0.03 (≈ 0.1 µM) | ≤ 0.004 | 0.008 (≈ 0.0267 µM) | 0.008 (≈ 0.0267 µM) | 0.008 (≈ 0.0267 µM) | 0.03 (≈ 0.1 µM) | 1.7 | ≤ 0.004 | 0.5 (≈ 1.67 µM) | 0.008 (≈ 0.0267 µM) |  |
| C[C@H]1COc2c(N3CCN(C)CC3)c(F)cc3c(=O)c(C(=O)O)cn1c23.C[C@H]1COc2c(N3CCN(C)CC3)c(F)cc3c(=O)c(C(=O)O)cn1c23.O [LEVOFLOXACIN] |  |  |  |  | 64 |  |  |  |  |  |  |  |  |  |  |  | 1.3 |  |  |  |  |

From ChEMBL document CHEMBL1142186, “Multistep resistance selection and postantibiotic-effect studies of the antipneumococcal activity of LBM415 compared to other agents” (2007)
